Data published in US10189841B2, “Purinones as ubiquitin-specific protease 1 inhibitors” (Forma Therapeutics, Inc., priority 2015, dated 2019).

molecular target: USP1 (construct USP1 (I-785, GG670, 671AA)/UAF1 (I-677)-Flag) (Homo sapiens (Human), UniProt O94782, G670A/G671A); assay: Ubiquitin-Rhodamine 110 assay for USP1 activity; type: biochemical; conditions: USP1/UAF1 25 pM, Ub-Rh110 25 nM, 30 min preincubation
Method in brief: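 Ub-Rh110 (25 nM, ≪Km) cleavage read at ex 485/em 535 in Tris pH 8.0, CaCl2, GSH, Prionex, Triton X-100. The screen used 10 µM compound, 100 pM USP1/UAF1 and 45 min at RT.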

Chain of USP1 (construct USP1 (I-785, GG670, 671AA)/UAF1 (I-677)-Flag) (O94782 whole entry G670A/G671A): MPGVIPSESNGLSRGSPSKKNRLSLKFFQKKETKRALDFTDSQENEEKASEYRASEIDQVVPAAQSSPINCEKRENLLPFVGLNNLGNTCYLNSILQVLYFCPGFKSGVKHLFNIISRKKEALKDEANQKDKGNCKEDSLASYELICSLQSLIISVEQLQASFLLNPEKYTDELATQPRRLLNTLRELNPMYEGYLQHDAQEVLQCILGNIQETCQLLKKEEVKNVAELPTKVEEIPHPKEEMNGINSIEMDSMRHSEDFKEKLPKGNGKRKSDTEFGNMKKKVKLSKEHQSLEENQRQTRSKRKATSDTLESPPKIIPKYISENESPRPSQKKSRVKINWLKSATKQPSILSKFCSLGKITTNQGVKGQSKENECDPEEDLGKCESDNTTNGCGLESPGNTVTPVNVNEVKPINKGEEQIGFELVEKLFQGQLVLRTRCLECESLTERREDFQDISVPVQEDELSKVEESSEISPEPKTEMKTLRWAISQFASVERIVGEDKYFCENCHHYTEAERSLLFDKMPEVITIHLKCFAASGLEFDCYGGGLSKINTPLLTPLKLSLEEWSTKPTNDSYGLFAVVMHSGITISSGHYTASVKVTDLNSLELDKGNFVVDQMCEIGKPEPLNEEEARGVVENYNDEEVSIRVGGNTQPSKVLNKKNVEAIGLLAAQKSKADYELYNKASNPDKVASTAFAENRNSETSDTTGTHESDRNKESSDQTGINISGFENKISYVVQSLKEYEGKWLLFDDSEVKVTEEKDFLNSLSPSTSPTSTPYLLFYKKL
Chain of USP1 (construct USP1 (I-785, GG670, 671AA)/UAF1 (I-677)-Flag) (Q8TAF3 whole entry partner): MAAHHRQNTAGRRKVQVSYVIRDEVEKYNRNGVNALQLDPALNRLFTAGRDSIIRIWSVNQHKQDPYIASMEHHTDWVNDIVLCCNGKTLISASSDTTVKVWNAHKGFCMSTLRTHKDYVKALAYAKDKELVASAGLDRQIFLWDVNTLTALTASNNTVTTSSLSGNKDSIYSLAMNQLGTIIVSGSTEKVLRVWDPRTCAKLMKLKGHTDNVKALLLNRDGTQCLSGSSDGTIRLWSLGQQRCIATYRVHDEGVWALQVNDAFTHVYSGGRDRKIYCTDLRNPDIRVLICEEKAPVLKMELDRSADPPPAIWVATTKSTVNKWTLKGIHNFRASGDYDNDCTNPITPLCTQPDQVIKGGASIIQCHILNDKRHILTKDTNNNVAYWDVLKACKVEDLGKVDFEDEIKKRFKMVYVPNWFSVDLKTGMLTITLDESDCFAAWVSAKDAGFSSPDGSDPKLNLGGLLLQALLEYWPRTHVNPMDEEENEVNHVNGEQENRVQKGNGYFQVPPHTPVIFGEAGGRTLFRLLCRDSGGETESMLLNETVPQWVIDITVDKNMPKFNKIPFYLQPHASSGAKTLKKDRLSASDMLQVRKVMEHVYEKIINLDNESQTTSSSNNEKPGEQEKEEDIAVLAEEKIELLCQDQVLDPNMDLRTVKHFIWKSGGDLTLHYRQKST

`CC(C)c1ccccc1-c1ncc2[nH]c(=O)n(Cc3ccc(-c4cn(C)cn4)cc3)c2n1` [Compound I-273, 2-(2-isopropylphenyl)-9-(4-(1-methyl-1H-imidazol-4-yl)benzyl)-7,9-dihydro-8H-purin-8-one] and `CC(C)c1ccccc1-c1ncc2[nH]c(=O)n(Cc3ccc(-c4cn(C(C)C)cn4)cc3)c2n1` [Compound I-275, 9-(4-(1-isopropyl-1H-imidazol-4-yl)benzyl)-2-(2-isopropylphenyl)-7,9-dihydro-8H-purin-8-one] cannot be ordered by IC50: less than 0.05 µM for the first, less than 0.05 µM for the second.

First: CC(C)c1ccccc1-c1ncc2[nH]c(=O)n(Cc3ccc(-c4ncn(C)n4)cc3)c2n1 [Compound I-274, 2-(2-isopropylphenyl)-9-(4-(1-methyl-1H-1,2,4-triazol-3-yl)benzyl)-7,9-dihydro-8H-purin-8-one]
Second: Cc1nc(-c2ccc(Cn3c(=O)[nH]c4cnc(-c5ccccc5C(C)C)nc43)cc2)nn1C [Compound I-294, 9-(4-(1,5-dimethyl-1H-1,2,4-triazol-3-yl)benzyl)-2-(2-isopropylphenyl)-7,9-dihydro-8H-purin-8-one]
The IC50 of the first is higher: 0.05 to 0.2 µM for the first, less than 0.05 µM for the second.

`Cc1nc(-c2ccc(Cn3c(=O)n(C)c4cnc(-c5ccccc5C(C)C)nc43)cc2)cn1C` [Compound I-276, 9-(4-(1,2-dimethyl-1H-imidazol-4-yl)benzyl)-2-(2-isopropylphenyl)-7-methyl-7,9-dihydro-8H-purin-8-one] and `Cc1nc(-c2ccc(Cn3c(=O)n(C)c4cnc(-c5ccccc5C(C)C)nc43)cc2)nn1C` [Compound I-279, 9-(4-(1,5-dimethyl-1H-1,2,4-triazol-3-yl)benzyl)-2-(2-isopropylphenyl)-7-methyl-7,9-dihydro-8H-purin-8-one] cannot be ordered by IC50: less than 0.05 µM for the first, less than 0.05 µM for the second.

First: CC(C)c1ccccc1-c1ncc2c(n1)n(Cc1ccc(-c3cn(C(C)C)cn3)cc1)c(=O)n2C [Compound I-277, 9-(4-(1-isopropyl-1H-imidazol-4-yl)benzyl)-2-(2-isopropylphenyl)-7-methyl-7,9-dihydro-8H-purin-8-one]
Second: CC(C)c1ccccc1-c1ncc2c(n1)n(Cc1ccc(-c3ccnn3C(C)C)cc1)c(=O)n2C [Compound I-284, 9-(4-(1-isopropyl-1H-pyrazol-5-yl)benzyl)-2-(2-isopropylphenyl)-7-methyl-7,9-dihydro-8H-purin-8-one]
The IC50 of the first is lower: less than 0.05 µM for the first, 0.2 to 2 µM for the second.

First: CC(C)c1ccccc1-c1ncc2c(n1)n(Cc1ccc(-c3nc(C(N)=O)n(C)n3)cc1)c(=O)n2C [Compound I-278, 3-(4-((2-(2-isopropylphenyl)-7-methyl-8-oxo-7,8-dihydro-9H-purin-9-yl)methyl)phenyl)-1-methyl-1H-1,2,4-triazole-5-carboxamide]
Second: COc1nc(-c2ccc(Cn3c(=O)n(C)c4cnc(-c5ccccc5C(C)C)nc43)cc2)nn1C [Compound I-281, 2-(2-isopropylphenyl)-9-(4-(5-methoxy-1-methyl-1H-1,2,4-triazol-3-yl)benzyl)-7-methyl-7,9-dihydro-8H-purin-8-one]
The IC50 of the first is higher: 0.05 to 0.2 µM for the first, less than 0.05 µM for the second.

`CC(C)c1ccccc1-c1ncc2c(n1)n(Cc1ccc(-c3nc(C(F)(F)F)n(C)n3)cc1)c(=O)n2C` [Compound I-280, 2-(2-isopropylphenyl)-7-methyl-9-(4-(1-methyl-5-(trifluoromethyl)-1H-1,2,4-triazol-3-yl)benzyl)-7,9-dihydro-8H-purin-8-one] and `CC(C)c1ccccc1-c1ncc2[nH]c(=O)n(Cc3ccc(-c4nc(C(F)(F)F)n(C)n4)cc3)c2n1` [Compound I-293, 2-(2-isopropylphenyl)-9-(4-(1-methyl-5-(trifluoromethyl)-1H-1,2,4-triazol-3-yl)benzyl)-7,9-dihydro-8H-purin-8-one] cannot be ordered by IC50: less than 0.05 µM for the first, less than 0.05 µM for the second.

`CC(C)c1ccccc1-c1ncc2c(n1)n(Cc1ccc(-c3nc(N4CCOCC4)n(C)n3)cc1)c(=O)n2C` [Compound I-282, 2-(2-isopropylphenyl)-7-methyl-9-(4-(1-methyl-5-morpholino-1H-1,2,4-triazol-3-yl)benzyl)-7,9-dihydro-8H-purin-8-one] and `CC(C)c1ccccc1-c1ncc2[nH]c(=O)n(Cc3ccc(-c4nc(N5CCOCC5)n(C)n4)cc3)c2n1` [Compound I-292, 2-(2-isopropylphenyl)-9-(4-(1-methyl-5-morpholino-1H-1,2,4-triazol-3-yl)benzyl)-7,9-dihydro-8H-purin-8-one] fall in the same range of IC50: 0.05 to 0.2 µM for the first, 0.05 to 0.2 µM for the second.

`Cc1nc(-c2ccc(Cn3c(=O)n(C)c4cnc(-c5ccccc5C(C)C)nc43)cc2)n(C)n1` [Compound I-283, 9-(4-(1,3-dimethyl-1H-1,2,4-triazol-5-yl)benzyl)-2-(2-isopropylphenyl)-7-methyl-7,9-dihydro-8H-purin-8-one] and `Cc1nc(-c2ccc(Cn3c(=O)[nH]c4cnc(-c5ccccc5C(C)C)nc43)cc2)n(C)n1` [Compound I-296, 9-(4-(1,3-dimethyl-1H-1,2,4-triazol-5-yl)benzyl)-2-(2-isopropylphenyl)-7,9-dihydro-8H-purin-8-one] cannot be ordered by IC50: less than 0.05 µM for the first, less than 0.05 µM for the second.

First: CC(C)c1ccccc1-c1ncc2c(n1)n(Cc1ccc(-c3cnnn3C)cc1)c(=O)n2C [Compound I-285, 2-(2-isopropylphenyl)-7-methyl-9-(4-(1-methyl-1H-1,2,3-triazol-5-yl)benzyl)-7,9-dihydro-8H-purin-8-one]
Second: CC(C)c1ccccc1-c1ncc2c(n1)n(Cc1ccc(-c3cn(C)nn3)cc1)c(=O)n2C [Compound I-287, 2-(2-isopropylphenyl)-7-methyl-9-(4-(1-methyl-1H-1,2,3-triazol-4-yl)benzyl)-7,9-dihydro-8H-purin-8-one]
The IC50 of the first is higher: 0.2 to 2 µM for the first, less than 0.05 µM for the second. The second is the more potent here.

`CC(C)c1ccccc1-c1ncc2c(n1)n(Cc1ccc(-c3nnc4ccccn34)cc1)c(=O)n2C` [Compound I-286, 9-(4-([1,2,4]triazolo[4,3-a]pyridin-3-yl)benzyl)-2-(2-isopropylphenyl)-7-methyl-7,9-dihydro-8H-purin-8-one] and `Cc1coc(-c2ccc(Cn3c(=O)n(C)c4cnc(-c5ccccc5C(C)C)nc43)cc2)n1` [Compound I-290, 2-(2-isopropylphenyl)-7-methyl-9-(4-(4-methyloxazol-2-yl)benzyl)-7,9-dihydro-8H-purin-8-one] cannot be ordered by IC50: less than 0.05 µM for the first, less than 0.05 µM for the second.

First: CC(C)c1ccccc1-c1ncc2c(n1)n(Cc1ccc(-c3ncn(C)c3CO)cc1)c(=O)n2C [Compound I-288, 9-(4-(5-(hydroxymethyl)-1-methyl-1H-imidazol-4-yl)benzyl)-2-(2-isopropylphenyl)-7-methyl-7,9-dihydro-8H-purin-8-one]
Second: CC(C)c1ccccc1-c1ncc2c(n1)n(Cc1ccc(-c3nccn4ccnc34)cc1)c(=O)n2C [Compound I-289, 9-(4-(imidazo[1,2-a]pyrazin-8-yl)benzyl)-2-(2-isopropylphenyl)-7-methyl-7,9-dihydro-8H-purin-8-one]
The IC50 of the first is higher: 0.2 to 2 µM for the first, less than 0.05 µM for the second.

`CC(C)c1ccccc1-c1ncc2[nH]c(=O)n(Cc3ccc(-c4nccn5ccnc45)cc3)c2n1` [Compound I-291, 9-(4-(imidazo[1,2-a]pyrazin-8-yl)benzyl)-2-(2-isopropylphenyl)-7,9-dihydro-8H-purin-8-one] and `COc1nc(-c2ccc(Cn3c(=O)[nH]c4cnc(-c5ccccc5C(C)C)nc43)cc2)nn1C` [Compound I-295, 2-(2-isopropylphenyl)-9-(4-(5-methoxy-1-methyl-1H-1,2,4-triazol-3-yl)benzyl)-7,9-dihydro-8H-purin-8-one] cannot be ordered by IC50: less than 0.05 µM for the first, less than 0.05 µM for the second.
